# In US8124793B2, “Derivatives of ethylene methanedisulfonate as cancer chemotherapeutic agents” (priority 2007, dated 2012):
# What was measured:
# K562 = test: NCI screen, growth of human tumor cells: Leukemia K562; type: cell-based; conditions: K562 (Leukemia), 10^−4 molar
# How it was run: (§1)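 The NCI screen tests each compound on human cancer cell lines and reports percent growth. Concentrations are given in molar units; the number of data points per compound is sixty at minimum.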
# NCI-H522 = test: NCI screen, growth of human tumor cells: Non-Small Cell Lung NCI-H522; type: cell-based; conditions: NCI-H522 (Non-Small Cell Lung), 10^−4 molar
# How it was run: as §1
# NCI-H322M = test: NCI screen, growth of human tumor cells: Non-Small Cell Lung NCI-H322M; type: cell-based; conditions: NCI-H322M (Non-Small Cell Lung), 10^−4 molar
# How it was run: as §1
# UACC-257 = test: NCI screen, growth of human tumor cells: Melanoma UACC-257; type: cell-based; conditions: UACC-257 (Melanoma), 10^−4 molar
# How it was run: as §1
# OVCAR-3 = test: NCI screen, growth of human tumor cells: Ovarian Cancer OVCAR-3; type: cell-based; conditions: OVCAR-3 (Ovarian Cancer), 10^−4 molar
# How it was run: as §1
# 786-0 = test: NCI screen, growth of human tumor cells: Renal Cancer 786-0; type: cell-based
# How it was run: as §1
# HOP-92 = test: NCI screen, growth of human tumor cells: Non-Small Cell Lung HOP-92; type: cell-based
# How it was run: as §1
# SK-MEL-2 = test: NCI screen, growth of human tumor cells: Melanoma SK-MEL-2; type: cell-based; conditions: SK-MEL-2, 10^−4 molar
# How it was run: as §1
# DMS114 = test: NCI screen, growth of human tumor cells: Small Cell Lung Cancer DMS114; type: cell-based; conditions: 10^−4 molar
# Protocol: (§2) The compounds listed in Section II are arranged by their NSC number followed by the percent of growth of human tumor cells when the compound is administrated at 10^−4 molar concentration.
# (§3) In the NCI screening process, each compound was tested and described by a minimum of 60 data points. The test data include, but are not limited to the type of cancer, the molar concentration used in the screen, and the percent growth of the cancer. In some cases, NMR and elemental analysis were used for structural assignment.
# HL-60 (TB) = test: NCI screen, growth of human tumor cells: Leukemia HL-60 (TB); type: cell-based; conditions: HL-60 (TB) (Leukemia), 10^−4 molar
# Protocol: as §3
# SNB-75 = test: NCI screen, growth of human tumor cells: CNS Cancer SNB-75; type: cell-based; conditions: SNB-75 (CNS Cancer), 10^−4 molar
# How it was run: as §1
# SN12C = test: NCI screen, growth of human tumor cells: Renal Cancer SN12C; type: cell-based; conditions: SN12C (Renal Cancer), 10^−4 molar
# How it was run: as §1
# A498 = test: NCI screen, growth of human tumor cells: Renal Cancer A498; type: cell-based; conditions: A498, 10^−4 molar
# SF-295 = test: NCI screen, growth of human tumor cells: CNS Cancer SF-295; type: cell-based; conditions: SF-295 (CNS Cancer), 10^−4 molar
# How it was run: as §1
# LOXIMVI = test: NCI screen, growth of human tumor cells: Melanoma LOXIMVI; type: cell-based; conditions: LOXIMVI, 10^−4 molar
# How it was run: as §1
# UACC-62 = test: NCI screen, growth of human tumor cells: Melanoma UACC-62; type: cell-based
# How it was run: as §1
# HCC-2998 = test: NCI screen, growth of human tumor cells: HCC-2998 (listed under Non-Small Cell Lung); type: cell-based; conditions: HCC-2998, 10^−4 molar
# How it was run: as §1
# LXFL529 = test: NCI screen, growth of human tumor cells: Non-Small Cell Lung Cancer LXFL529; type: cell-based
# NCI-H23 = test: NCI screen, growth of human tumor cells: Non-Small Cell Lung NCI-H23; type: cell-based
# How it was run: as §1
# SK-MEL-28 = test: NCI screen, growth of human tumor cells: Melanoma SK-MEL-28; type: cell-based; conditions: SK-MEL-28 (Melanoma), 10^−4 molar
# How it was run: as §1
# TK-10 = test: NCI screen, growth of human tumor cells: Renal Cancer TK-10; type: cell-based; conditions: TK-10 (Renal Cancer), 10^−4 molar
# Protocol: as §3
# SR = test: NCI screen, growth of human tumor cells: Leukemia SR; type: cell-based; conditions: SR
# How it was run: as §1
# AS49/ATCC = test: NCI screen, growth of human tumor cells: Non-Small Cell Lung AS49/ATCC; type: cell-based; conditions: AS49/ATCC (Non-Small Cell Lung), 10^−4 molar
# How it was run: as §1
# SF-539 = test: NCI screen, growth of human tumor cells: CNS Cancer SF-539; type: cell-based; conditions: SF-539 (CNS Cancer), 10^−4 molar
# How it was run: as §1
# SF-268 = test: NCI screen, growth of human tumor cells: CNS Cancer SF-268; type: cell-based; conditions: SF-268 (CNS Cancer), 10^−4 molar
# How it was run: as §1
# SK-OV-3 = test: NCI screen, growth of human tumor cells: Ovarian Cancer SK-OV-3; type: cell-based; conditions: SK-OV-3 (Ovarian Cancer), 10^−4 molar
# How it was run: as §1
# IGROVI = test: NCI screen, growth of human tumor cells: Ovarian Cancer IGROVI; type: cell-based; conditions: IGROVI (Ovarian Cancer), 10^−4 molar
# How it was run: as §1
# MOLT-4 = test: NCI screen, growth of human tumor cells: Leukemia MOLT-4; type: cell-based; conditions: MOLT-4 (Leukemia), 10^−4 molar
# How it was run: as §1
# HOP-62 = test: NCI screen, growth of human tumor cells: Non-Small Cell Lung HOP-62; type: cell-based; conditions: HOP-62, 10^−4 molar
# How it was run: as §1
# NCI-H226 = test: NCI screen, growth of human tumor cells: Non-Small Cell Lung NCI-H226; type: cell-based; conditions: NCI-H226, 10^−4 molar
# How it was run: as §1
# CAKI-1 = test: NCI screen, growth of human tumor cells: Renal Cancer CAKI-1; type: cell-based
# How it was run: as §1
# XF 498 = test: NCI screen, growth of human tumor cells: CNS Cancer XF 498; type: cell-based; conditions: XF 498 (CNS Cancer), 10^−4 molar
# Protocol: as §2, §3
# COLO205 = test: NCI screen, growth of human tumor cells: Colon Cancer COLO205; type: cell-based; conditions: COLO205, 10^−4 molar
# How it was run: as §1
# KM12 = test: NCI screen, growth of human tumor cells: Colon Cancer KM12; type: cell-based; conditions: KM12 (Colon Cancer), 10^−4 molar
# How it was run: as §1
# DMS273 = test: NCI screen, growth of human tumor cells: Small Cell Lung Cancer DMS273; type: cell-based; conditions: 10^−4 molar
# Protocol: as §2, §3
# OVCAR-4 = test: NCI screen, growth of human tumor cells: Ovarian Cancer OVCAR-4; type: cell-based; conditions: OVCAR-4 (Ovarian Cancer), 10^−4 molar
# How it was run: as §1
# SK-MEL-5 = test: NCI screen, growth of human tumor cells: Melanoma SK-MEL-5; type: cell-based; conditions: SK-MEL-5, 10^−4 molar
# How it was run: as §1
# MALME-3M = test: NCI screen, growth of human tumor cells: Melanoma MALME-3M; type: cell-based; conditions: MALME-3M, 10^−4 molar
# How it was run: as §1
# UO-31 = test: NCI screen, growth of human tumor cells: Renal Cancer UO-31; type: cell-based; conditions: UO-31, 10^−4 molar
# How it was run: as §1
# SNB-78 = test: NCI screen, growth of human tumor cells: CNS Cancer SNB-78; type: cell-based; conditions: SNB-78 (CNS Cancer), 10^−4 molar
# Protocol: as §2, §3
# EKVX = test: NCI screen, growth of human tumor cells: Non-Small Cell Lung EKVX; type: cell-based; conditions: EKVX (Non-Small Cell Lung), 10^−4 molar
# How it was run: as §1
# HCT-116 = test: NCI screen, growth of human tumor cells: Colon Cancer HCT-116; type: cell-based; conditions: HCT-116, 10^−4 molar
# How it was run: as §1
# CCRF-CEM = test: NCI screen, growth of human tumor cells: Leukemia CCRF-CEM; type: cell-based; conditions: for % Growth: CCRF-CEM
# How it was run: as §1
# HT29 = test: NCI screen, growth of human tumor cells: Colon Cancer HT29; type: cell-based; conditions: HT29 (Colon Cancer), 10^−4 molar
# How it was run: as §1
# RXF-631 = test: NCI screen, growth of human tumor cells: Renal Cancer RXF-631; type: cell-based; conditions: RXF-631 (Renal Cancer), 10^−4 molar
# Protocol: as §2, §3
# OVCAR-8 = test: NCI screen, growth of human tumor cells: Ovarian Cancer OVCAR-8; type: cell-based; conditions: OVCAR-8 (Ovarian Cancer), 10^−4 molar
# How it was run: as §1
# RPMI-8226 = test: NCI screen, growth of human tumor cells: Leukemia RPMI-8226; type: cell-based
# How it was run: as §1
# SW620 = test: NCI screen, growth of human tumor cells: Colon Cancer SW620; type: cell-based; conditions: SW620, 10^−4 molar
# How it was run: as §1
# ACHN = test: NCI screen, growth of human tumor cells: Renal Cancer ACHN; type: cell-based; conditions: ACHN (Renal Cancer), 10^−4 molar
# How it was run: as §1
# NCI-H460 = test: NCI screen, growth of human tumor cells: Non-Small Cell Lung NCI-H460; type: cell-based; conditions: NCI-H460 (Non-Small Cell Lung), 10^−4 molar
# How it was run: as §1
# [1] = system: lymphocytic leukemia, lymphoid leukemia, melanocarcinoma, human breast xenograft and ovarian carcinoma; conditions: disclosure of U.S. Pat. No. 4,950,768; cited from earlier work
# SNB-19 = test: NCI screen, growth of human tumor cells: CNS Cancer SNB-19; type: cell-based; conditions: SNB-19 (CNS Cancer), 10^−4 molar
# How it was run: as §1
smiles,measurement,setting,value
"O=S1(=O)OCCOS(=O)(=O)C1(I)I [NSC 648308, ethylene diiodomethanedisulfonate]",percent of growth of human tumor cells,K562,−16%
same,percent of growth of human tumor cells,NCI-H522,−45%
same,percent of growth of human tumor cells,NCI-H322M,−45%
same,percent of growth of human tumor cells,UACC-257,−54%
same,percent of growth of human tumor cells,OVCAR-3,−14%
same,% Growth,"786-0; 786-0, 10^−4 molar",−95%
same,% Growth,"HOP-92; HOP-92, 10^−4 molar",−78%
same,% Growth,SK-MEL-2,−80%
same,percent of growth of human tumor cells,DMS114,−46%
same,percent of growth of human tumor cells,HL-60 (TB),−16%
same,percent of growth of human tumor cells,SNB-75,−36%
same,percent of growth of human tumor cells,SN12C,−61%
same,% Growth,A498,−100%
same,percent of growth of human tumor cells,SF-295,−4%
same,% Growth,LOXIMVI,−93%
same,% Growth,"UACC-62; UACC-62, 10^−4 molar",−82%
same,% Growth,HCC-2998,−99%
same,% Growth,"LXFL529; LXFL529, 10^−4 molar",−72%
same,% Growth,"LXFL529; LXFL529, 10^−5 molar",55%
same,% Growth,"NCI-H23; NCI-H23, 10^−4 molar",−70%
same,% Growth,"NCI-H23; NCI-H23, 10^−5 molar",56%
same,percent of growth of human tumor cells,SK-MEL-28,−29%
same,percent of growth of human tumor cells,TK-10,−19%
same,% Growth,SR; 10^−4 molar,−37%
same,% Growth,SR; 10^−5 molar,48%
same,percent of growth of human tumor cells,AS49/ATCC,−17%
same,percent of growth of human tumor cells,SF-539,−25%
same,percent of growth of human tumor cells,SF-268,−11%
same,percent of growth of human tumor cells,SK-OV-3,−49%
same,percent of growth of human tumor cells,IGROVI,−24%
same,percent of growth of human tumor cells,MOLT-4,−22%
same,% Growth,HOP-62,−69%
same,% Growth,NCI-H226,−91%
same,% Growth,"CAKI-1; CAKI-1, 10^−4 molar",−71%
same,percent of growth of human tumor cells,XF 498,−67%
same,% Growth,COLO205,−61%
same,percent of growth of human tumor cells,KM12,−58%
same,percent of growth of human tumor cells,DMS273,−45%
same,percent of growth of human tumor cells,OVCAR-4,−39%
same,% Growth,SK-MEL-5,−91%
same,% Growth,MALME-3M,−80%
same,% Growth,UO-31,−95%
same,percent of growth of human tumor cells,SNB-78,−6%
same,percent of growth of human tumor cells,EKVX,−35%
same,% Growth,HCT-116,−100%
same,% Growth,CCRF-CEM; 10^−4 molar,−44%
same,% Growth,CCRF-CEM; 10^−5 molar,55%
same,percent of growth of human tumor cells,HT29,−18%
same,percent of growth of human tumor cells,RXF-631,−44%
same,percent of growth of human tumor cells,OVCAR-8,−25%
same,% Growth,"RPMI-8226; RPMI-8226, 10^−4 molar",−37%
same,% Growth,"RPMI-8226; RPMI-8226, 10^−5 molar",48%
same,% Growth,SW620,−55%
"O=S1(=O)CS(=O)(=O)OCCO1 [NSC 348948, ethylene methanedisulfonate]",melting point,,176 to 180 °C
same,percent of growth of human tumor cells,K562,5%
same,percent of growth of human tumor cells,ACHN,22%
same,percent of growth of human tumor cells,"786-0; 786-0 (Renal Cancer), 10^−4 molar",24%
same,percent of growth of human tumor cells,"HOP-92; HOP-92 (Non-Small Cell Lung), 10^−4 molar",6%
same,percent of growth of human tumor cells,SNB-75,18%
same,percent of growth of human tumor cells,NCI-H460,6%
same,effectiveness in the treatment of mice cancers,[1],effective
same,percent of growth of human tumor cells,"UACC-62; UACC-62 (Melanoma), 10^−4 molar",−13%
same,percent of growth of human tumor cells,SNB-19,18%
same,percent of growth of human tumor cells,MOLT-4,5%
same,percent of growth of human tumor cells,"CAKI-1; CAKI-1 (Renal Cancer), 10^−4 molar",−6%
same,percent of growth of human tumor cells,"CCRF-CEM; CCRF-CEM (Leukemia), 10^−4 molar",−3%
